Laboratory results taken from ChEMBL document CHEMBL3400024, “α-Adrenoceptor antagonistic and hypotensive properties of novel arylpiperazine derivatives of pyrrolidin-2-one” (Bioorg Med Chem, 2015).
Activity calls are given as the source filed them. The rule behind the calls is not given here.

Tests used:
[1] = biological target: T1, Adrenergic receptor alpha-1 (Rattus norvegicus, UniProt P15823+P23944+P43140); experiment: Displacement of [3H]prazosin from rat cerebral cortex alpha-1 adrenergic receptor by liquid scintillation counting analysis; format: tissue-based
T1 sequence (P15823 whole entry): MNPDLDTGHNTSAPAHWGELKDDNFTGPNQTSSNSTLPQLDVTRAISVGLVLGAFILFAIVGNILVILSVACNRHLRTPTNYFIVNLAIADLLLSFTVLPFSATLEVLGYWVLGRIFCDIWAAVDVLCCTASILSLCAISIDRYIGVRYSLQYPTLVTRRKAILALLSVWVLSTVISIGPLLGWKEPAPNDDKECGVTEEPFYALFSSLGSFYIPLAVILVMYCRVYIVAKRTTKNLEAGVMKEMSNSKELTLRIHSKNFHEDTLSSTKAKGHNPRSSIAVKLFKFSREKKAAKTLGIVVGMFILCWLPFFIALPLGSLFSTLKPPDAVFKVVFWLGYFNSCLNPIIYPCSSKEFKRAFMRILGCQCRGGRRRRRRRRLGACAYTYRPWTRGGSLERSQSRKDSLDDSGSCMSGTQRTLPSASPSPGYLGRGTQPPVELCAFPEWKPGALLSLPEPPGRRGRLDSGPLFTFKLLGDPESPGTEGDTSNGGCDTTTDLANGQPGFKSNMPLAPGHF
T1 sequence (P23944 whole entry): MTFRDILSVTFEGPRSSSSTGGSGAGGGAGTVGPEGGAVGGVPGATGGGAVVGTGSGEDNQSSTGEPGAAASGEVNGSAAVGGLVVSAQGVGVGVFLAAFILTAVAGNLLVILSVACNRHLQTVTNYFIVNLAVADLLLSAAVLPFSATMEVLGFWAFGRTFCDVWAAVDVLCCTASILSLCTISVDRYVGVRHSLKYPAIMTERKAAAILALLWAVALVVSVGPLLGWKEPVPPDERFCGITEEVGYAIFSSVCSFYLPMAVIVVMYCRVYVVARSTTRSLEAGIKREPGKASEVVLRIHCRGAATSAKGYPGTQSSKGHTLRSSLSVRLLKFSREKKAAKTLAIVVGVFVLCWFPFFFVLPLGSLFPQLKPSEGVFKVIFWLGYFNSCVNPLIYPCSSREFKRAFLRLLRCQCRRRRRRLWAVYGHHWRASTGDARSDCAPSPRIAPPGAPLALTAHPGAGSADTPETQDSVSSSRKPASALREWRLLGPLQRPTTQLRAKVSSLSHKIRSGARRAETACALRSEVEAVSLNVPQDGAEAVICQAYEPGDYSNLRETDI
T1 sequence (P43140 whole entry): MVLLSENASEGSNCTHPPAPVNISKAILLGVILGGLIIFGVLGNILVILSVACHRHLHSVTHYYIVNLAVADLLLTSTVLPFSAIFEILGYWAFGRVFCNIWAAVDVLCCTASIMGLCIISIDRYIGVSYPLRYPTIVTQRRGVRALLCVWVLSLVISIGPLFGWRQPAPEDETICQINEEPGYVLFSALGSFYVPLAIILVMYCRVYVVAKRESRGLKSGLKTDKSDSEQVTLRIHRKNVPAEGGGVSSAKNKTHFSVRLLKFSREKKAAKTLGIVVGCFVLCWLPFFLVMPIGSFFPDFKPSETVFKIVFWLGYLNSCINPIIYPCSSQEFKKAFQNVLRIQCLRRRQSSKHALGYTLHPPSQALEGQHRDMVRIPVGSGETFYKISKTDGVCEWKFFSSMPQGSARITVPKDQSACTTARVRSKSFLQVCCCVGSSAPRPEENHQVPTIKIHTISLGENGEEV

[2] = biological target: T2, Adrenergic receptor alpha-2 (Rattus norvegicus, UniProt P22086+P19328+P22909); experiment: Displacement of [3H]clonidine from rat cerebral cortex alpha-2 adrenergic receptor by liquid scintillation counting analysis; format: tissue-based
T2 sequence (P22086 whole entry): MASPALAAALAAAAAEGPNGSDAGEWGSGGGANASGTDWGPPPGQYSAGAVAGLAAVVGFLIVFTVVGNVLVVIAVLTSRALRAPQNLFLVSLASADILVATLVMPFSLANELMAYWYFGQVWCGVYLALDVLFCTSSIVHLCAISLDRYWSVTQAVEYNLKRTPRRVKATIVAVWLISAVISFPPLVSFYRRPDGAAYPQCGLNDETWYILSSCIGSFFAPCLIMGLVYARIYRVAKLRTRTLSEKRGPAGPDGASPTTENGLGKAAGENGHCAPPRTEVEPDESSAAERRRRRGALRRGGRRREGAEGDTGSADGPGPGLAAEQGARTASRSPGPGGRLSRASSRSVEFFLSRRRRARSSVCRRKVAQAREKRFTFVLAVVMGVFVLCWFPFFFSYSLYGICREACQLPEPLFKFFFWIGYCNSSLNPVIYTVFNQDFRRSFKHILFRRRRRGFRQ
T2 sequence (P19328 whole entry): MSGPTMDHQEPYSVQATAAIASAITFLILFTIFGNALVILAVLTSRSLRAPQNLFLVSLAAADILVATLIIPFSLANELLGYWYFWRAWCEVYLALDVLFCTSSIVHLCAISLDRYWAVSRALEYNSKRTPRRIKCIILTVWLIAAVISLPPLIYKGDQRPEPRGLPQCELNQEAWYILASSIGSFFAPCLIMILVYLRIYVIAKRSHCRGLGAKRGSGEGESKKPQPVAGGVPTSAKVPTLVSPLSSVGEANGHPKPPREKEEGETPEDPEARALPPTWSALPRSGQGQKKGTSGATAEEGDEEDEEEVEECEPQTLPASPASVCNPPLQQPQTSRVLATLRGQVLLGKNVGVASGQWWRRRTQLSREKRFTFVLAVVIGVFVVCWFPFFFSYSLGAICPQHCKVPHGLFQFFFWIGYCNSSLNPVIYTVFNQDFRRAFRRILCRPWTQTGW
T2 sequence (P22909 whole entry): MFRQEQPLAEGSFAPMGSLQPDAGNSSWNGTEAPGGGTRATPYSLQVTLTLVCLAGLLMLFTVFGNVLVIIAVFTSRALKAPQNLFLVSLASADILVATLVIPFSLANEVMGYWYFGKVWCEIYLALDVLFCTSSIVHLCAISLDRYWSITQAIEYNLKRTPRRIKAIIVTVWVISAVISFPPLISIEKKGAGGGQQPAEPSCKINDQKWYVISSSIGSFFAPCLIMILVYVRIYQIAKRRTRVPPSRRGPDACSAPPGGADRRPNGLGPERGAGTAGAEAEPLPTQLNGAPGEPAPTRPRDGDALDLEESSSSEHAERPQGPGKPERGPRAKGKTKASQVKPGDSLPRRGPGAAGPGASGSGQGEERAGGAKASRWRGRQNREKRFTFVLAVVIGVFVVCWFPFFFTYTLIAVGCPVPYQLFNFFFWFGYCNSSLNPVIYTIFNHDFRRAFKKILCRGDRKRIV

[3] = biological target: T3, Alpha-1A adrenergic receptor (Homo sapiens, UniProt P35348); experiment: Agonist activity at alpha-1A adrenergic receptor (unknown origin) after 5 hrs by CCF4-AM staining-based cellular assay
T3 sequence (P35348 whole entry): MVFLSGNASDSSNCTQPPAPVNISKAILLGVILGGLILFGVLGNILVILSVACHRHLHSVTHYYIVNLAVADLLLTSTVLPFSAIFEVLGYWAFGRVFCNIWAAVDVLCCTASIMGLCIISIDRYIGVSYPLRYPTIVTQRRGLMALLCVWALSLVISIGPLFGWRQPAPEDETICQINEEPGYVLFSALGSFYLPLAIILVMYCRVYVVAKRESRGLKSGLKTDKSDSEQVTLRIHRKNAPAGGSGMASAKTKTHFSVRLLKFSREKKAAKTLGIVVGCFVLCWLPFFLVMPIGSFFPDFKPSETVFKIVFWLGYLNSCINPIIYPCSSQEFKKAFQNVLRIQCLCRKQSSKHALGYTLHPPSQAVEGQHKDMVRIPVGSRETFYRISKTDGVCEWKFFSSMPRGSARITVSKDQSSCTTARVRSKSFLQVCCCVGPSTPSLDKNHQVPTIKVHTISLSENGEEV

[4] = biological target: T3, Alpha-1A adrenergic receptor; experiment: Antagonist activity at alpha-1A adrenergic receptor (unknown origin) incubated for 30 mins prior to agonist addition measured after 5 hrs by CCF4-AM staining-based cellular assay
[5] = biological target: T4, Alpha-1B adrenergic receptor (Homo sapiens, UniProt P35368); experiment: Antagonist activity at alpha-1B adrenergic receptor (unknown origin) incubated for 30 mins prior to agonist addition measured after 5 hrs by CCF4-AM staining-based cellular assay
T4 sequence (P35368 whole entry): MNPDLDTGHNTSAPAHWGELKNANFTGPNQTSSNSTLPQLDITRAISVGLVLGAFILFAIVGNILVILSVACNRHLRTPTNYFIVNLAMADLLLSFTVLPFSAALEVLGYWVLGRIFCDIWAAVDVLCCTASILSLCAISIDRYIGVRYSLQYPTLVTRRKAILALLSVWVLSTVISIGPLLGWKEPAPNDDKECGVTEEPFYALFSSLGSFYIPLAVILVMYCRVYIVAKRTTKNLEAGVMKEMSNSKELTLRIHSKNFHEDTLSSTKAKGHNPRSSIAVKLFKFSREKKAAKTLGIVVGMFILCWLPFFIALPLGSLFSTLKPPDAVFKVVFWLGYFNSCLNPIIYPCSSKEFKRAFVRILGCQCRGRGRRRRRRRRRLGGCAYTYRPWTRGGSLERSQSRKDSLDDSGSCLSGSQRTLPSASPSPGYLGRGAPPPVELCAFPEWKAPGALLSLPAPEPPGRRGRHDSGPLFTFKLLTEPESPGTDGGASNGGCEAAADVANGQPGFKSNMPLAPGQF

[6] = biological target: T5, Adrenergic receptor alpha-1 (Homo sapiens, UniProt P35348+P25100+P35368); experiment: Binding affinity to alpha-1 adrenergic receptor (unknown origin)
T5 sequence (P35348 whole entry): T3 sequence (P35348 whole entry)
T5 sequence (P25100 whole entry): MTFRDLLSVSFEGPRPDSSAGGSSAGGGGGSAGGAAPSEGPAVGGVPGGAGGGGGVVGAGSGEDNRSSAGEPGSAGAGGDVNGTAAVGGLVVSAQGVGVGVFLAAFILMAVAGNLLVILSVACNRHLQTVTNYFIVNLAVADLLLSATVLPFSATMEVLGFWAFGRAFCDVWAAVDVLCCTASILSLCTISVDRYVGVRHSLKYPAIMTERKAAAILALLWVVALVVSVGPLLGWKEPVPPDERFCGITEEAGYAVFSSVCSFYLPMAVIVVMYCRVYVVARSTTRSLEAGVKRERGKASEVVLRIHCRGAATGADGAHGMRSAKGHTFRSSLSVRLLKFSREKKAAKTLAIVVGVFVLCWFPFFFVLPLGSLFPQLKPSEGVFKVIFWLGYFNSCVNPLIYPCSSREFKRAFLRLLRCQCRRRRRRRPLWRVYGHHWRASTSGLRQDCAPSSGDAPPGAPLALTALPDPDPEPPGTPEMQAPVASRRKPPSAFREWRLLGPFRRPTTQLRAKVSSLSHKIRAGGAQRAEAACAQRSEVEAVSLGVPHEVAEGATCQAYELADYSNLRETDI
T5 sequence (P35368 whole entry): T4 sequence (P35368 whole entry)

Rattus norvegicus [7] = experiment: Hypotensive activity in normotensive anesthetized Wistar rat assessed as reduction of systolic pressure at 1 to 5 mg/kg, iv measured up to 60 mins; format: functional, organism-based
Rattus norvegicus [8] = experiment: Hypotensive activity in normotensive anesthetized Wistar rat assessed as reduction of diastolic pressure at 1 to 5 mg/kg, iv measured up to 60 mins; format: functional, organism-based

Row | Structure (SMILES) | pKi [1] | pKi [2] | EC50 [3] | EC50 [4] | EC50 [5] [nM] | EC50 ([4]; read-out: EC50) [nM] | pKi [6] | Activity (Rattus norvegicus [7]) | Activity (Rattus norvegicus [8])
1 | Cl.O=C1CCCN1CCCCN1CCN(c2ccccc2O)CC1 | 6.44 | < 5 | Not Active | Not Active | 165 |  |  |  | 
2 | Cl.O=C1CCCN1CCN1CCN(C(c2ccc(F)cc2)c2ccc(F)cc2)CC1 | 6.43 | 6.01 |  |  |  |  |  |  | 
3 | Cl.O=C1CCCN1CCCCN1CCN(C(c2ccc(F)cc2)c2ccc(F)cc2)CC1 | 7.07 | 5.92 |  |  | 131 | 329 |  |  | 
4 | O=C1CCCN1CCN1CCN(c2ccccc2Cl)CC1 |  |  |  |  |  |  | 7.13 |  | 
5 | Cl.O=C1CCCN1CCN1CCN(c2ccc(Cl)cc2)CC1 | 5.51 | < 5 |  |  |  |  |  |  | 
6 | COc1ccc(N2CCN(CCN3CCCC3=O)CC2)cc1.Cl | 5.92 | < 5 |  |  |  |  |  |  | 
7 | Cl.O=C1CCCN1CCCCN1CCN(c2ccccc2Cl)CC1 | 7.3 | 6.01 |  |  | 2.53 | 138 |  | Active | Active
8 | Cc1ccccc1N1CCN(CCCCN2CCCC2=O)CC1.Cl | 7.14 | 6.05 | Not Active | Not Active | 3.5 |  |  | Active | Active
9 | Cl.O=C1CCCN1CCCCN1CCN(c2ccc(F)cc2F)CC1 | 6.77 | < 5 | Not Active | Not Active | 46.9 |  |  |  | 
10 | COc1ccccc1N1CCN(CCN2CCCC2=O)CC1.Cl | < 5 | < 5 |  |  |  |  |  |  | 
11 | Cc1ccccc1N1CCN(CCN2CCCC2=O)CC1 |  |  |  |  |  |  | 7.05 |  | 
12 | Cc1ccccc1N1CCN(CCN2CCCC2=O)CC1.Cl | 6.09 | 5.92 |  |  |  |  |  |  | 
13 | COc1ccc(N2CCN(CCCCN3CCCC3=O)CC2)cc1.Cl | < 5 | < 5 |  |  |  |  |  |  | 
14 | Cl.O=C1CCCN1CCCCN1CCN(C(c2ccccc2)c2ccccc2)CC1 | 6.65 | < 5 | Not Active | Not Active | 289 |  |  |  | 
